Measurements as given in US5780509A, “Compound bearing two, 2,6-diiodophenol-4-YL groups and diagnostic drug for iodine allergy” (Muromachi Kagaku Kogyo Kaisha, Ltd., priority 1994, dated 1998).
Non-standard residues stand in square brackets, D forms with d. Residues, ends and D or L forms follow the SMILES beside them. Tyr(3,5-I2) = N[C@@H](Cc1cc(I)c(O)c(I)c1)C(=O)O

Legend:
guinea-pigs [1] = experiment: Passive cutaneous anaphylaxis (PCA) reaction, sensitization antigenicity; format: in vivo, guinea-pig
From the text: (§1) Sensitization antigenicity of iodinated tyrosine derivative was studied.
(§2) Trityrosine was selected as the tyrosine derivative, and this was iodinated to obtain iodinated trityrosine. Guinea-pigs were sensitized with iodinated trityrosine. As a positive control, employed was iodinated guinea-pig serum albumin (GSA). Guinea-pigs of the control group were sensitized with iodinated GSA. Sensitization was examined by active systemic anaphylaxis (ASA) reaction and passive cutaneous anaphylaxis (PCA) reaction.
(§3) Sensitization: Each of iodinated trityrosine and iodinated GSA was emulsified with complete Freund's adjuvant, and injected subcutaneously to the back of animals at a dose of 10 mg/animal (2.5 mg, respectively, at 4 sites), 3 times at intervals of 2 weeks.
PCA reaction: The blood was taken from each animal, and the serum was separated one week after the last sensitization injection. The serum was diluted fivefold with physiological saline, and injected intradermally to normal guinea-pigs at a dose of 0.1 ml/site. PCA reaction was provoked by intravenous injection of iodinated GSA (1 mg/animal) and Evans blue solution to the recipient animals 4 hours after the intradermal serum injection. PCA reaction was judged as being positive when the diameter of blue spot at the site of intradermal injection was 5 mm or larger.

anti-iodine antibody = experiment: ELISA inhibition potency (OD50) on anti-iodine antibody; format: binding, guinea-pig; conditions: serial twofold dilution, equal volume of 50-fold diluted anti-iodine antiserum; read-out: Inhibitory activity (OD50): concentration which decreased optical density of ELISA to a half of the control
Description: Guinea-pigs were immunized with iodine by injecting subcutaneously 1 mg of iodine containing potassium iodide solution treated with complete Freund's adjuvant seven times at intervals of 2 weeks, and anti-iodine antiserum was obtained from these animals. Antibody titers of the sera were determined by enzyme linked immunosorbent assay (ELISA) using 96 well microplate coated with iodinated guinea pig serum albumin (I-GSA) ELISA inhibition activities of the following compounds were studied. The compounds used were potassium iodide, tyrosine and its derivatives such as L-tyrosine, monoiodo-L-tyrosine, diiodotyrosine, hexaiodo-L-trityrosine, L-hexatyrosine and 12 iodo-L-hexatyrosine, and iodinated X-ray contrast media such as amidotrizoic acid, iodamide, ioxaglic acid, iohexol, iopamidol and iomeprol.
ELISA inhibition study was performed as follows. Antibody concentration of anti-iodine antiserum gave the maximum optical density in ELISA till one hundredfold serum dilution. Accordingly, seven steps of twofold serial dilution of anti-iodine antiserum, starting from 50-fold serum dilution, were made with physiological saline as a diluent. To each of the serially diluted sera, were added equal volume of solution containing each of the test compounds described above. After overnight incubation at 4 C, antibody activity was determined by ELISA. Phosphate buffered physiological saline (PBS) was used as a control. ELISA inhibitory activities of the test compounds were determined at the serum dilution which gave about 50% of the maximum optical density (OD415nm =2.6) of ELISA of control at serum dilution of one hundredfold. The inhibitory activity was calculated by the following calculation formula.
In the next, ELISA inhibition study was undertaken to determine the potency of ELISA inhibitory activity of active compounds. […] The inhibitory activity was expressed as the concentration which decreased optical density of ELISA to a half (OD50) of the control.

guinea-pigs [2] = experiment: Active systemic anaphylaxis (ASA) reaction, sensitization antigenicity; format: in vivo, guinea-pig
From the text: as §1, §2, §3
ASA reaction: Iodinated GSA (1 mg/animal) was injected intravenously to the animals one week after the last sensitization injection, by which ASA reaction was elicited. The animals which indicated symptoms of anaphylactic shock were judged as being positive.

[3] = test system: guinea-pigs immunized with iodine (iodine-sensitized) and non-sensitized guinea-pigs; experiment: Active cutaneous anaphylaxis (ACA) reaction, elicitation antigenicity; format: in vivo, guinea-pig (male SPF, Hartley strain); set-up: key to Mean diameter of blue spots, non-sensitized guinea-pig / Mean diameter of blue spots, iodine-sensitized guinea pig (second value) / Mean diameter of blue spots, iodine-sensitized guinea pig (first value): --: Negative response; **: Weak response; conditions: for Mean diameter of blue spots, iodine-sensitized guinea pig (first value) / Mean diameter of blue spots, iodine-sensitized guinea pig (second value) / Mean diameter of blue spots, non-sensitized guinea-pig: 30 min
From the text: The elicitation antigenicity of iodinated tyrosine derivatives was studied in the bases of the active cutaneous anaphylaxis (ACA) reaction in guinea-pigs immunized with iodine.
Animals: Male SPF guinea-pigs of Hartley strain, weighing 300~350 g were purchased from Charles River Japan Co., Ltd. These were immunized after having been acclimated for one week.
Sensitization: A solution of iodine potassium iodide (Wako Junyaku, special grade reagent) and complete Freund's adjuvant (Difco) were mixed in equal amounts to form an emulsion. This was administered subcutaneously into the back of guinea-pigs at a dose of 2 mg of iodine per animal 3 times at intervals of 2 weeks. Active cutaneous anaphylaxis (ACA) was elicited 2 weeks after the last sensitization injection.
ACA Induction: 2% Evans blue physiological solution (0.5 ml/animal) was administered intravenously to guinea-pigs, and immediately thereafter 0.1 ml of an elicitation antigen was administered intradermally into the back, and after 30 min. the existence of pigment leakage at the intradermally injected sites was observed.
Elicitation antigen: Iodinated dityrosine, iodinated trityrosine, iodinated dityrosylphenylalanine were administered intracutaneously at 0.1 ml/site. Guinea-pig serum albumin (fraction V: Sigma) was iodinated and used as a positive control. Corresponding noniodinated ones were also administered intradermally as negative controls.
Iodination reaction: To a 50 mM boric acid buffer solution (pH 9.5) of 10 mg/ml of dityrosine, trityrosine, or dityrosylphenylalanine (all produced by Sigma Co., Ltd.) or guinea-pig serum albumin (abbreviated hereafter as GSA), a 0.5M solution of iodine was added at a ratio of 10:1, and these were reacted at 37 C. overnight. The excess iodine in the reaction mixture was reduced by adding sodium thiosulfate (Nakarai Chemical Co., Ltd.). For purification of the iodinated tyrosine derivatives, the reaction mixture was extracted with ethyl acetate and dried with magnesium sulfate, and hexane was added to obtain crystals. For purification of the iodinated GSA, the reaction mixture was purified by passing it through a Sephadex G25 column.

N[C@@H](Cc1cc(I)c(O)c(I)c1)C(=O)N[C@@H](Cc1cc(I)c(O)c(I)c1)C(=O)N[C@@H](Cc1cc(I)c(O)c(I)c1)C(=O)O [Iodinated trityrosine, hexaiodo-L-trityrosine] (H-[Tyr(3,5-I2)]-[Tyr(3,5-I2)]-[Tyr(3,5-I2)]-OH)
PCA reaction (in words) (guinea-pigs [1]; sensitized group): negative in all animals | Anti-iodine antibody production / sensitization antigenicity (in words) (guinea-pigs [1]; sensitized guinea-pigs, from ASA and PCA reactions): no anti-iodine antibody was produced | PCA reaction: number of positive animal/number of sensitized animal (guinea-pigs [1]; serum diluted fivefold, 0.1 ml/site, iodinated GSA 1 mg/animal i.v., positive = blue spot 5 mm or larger): 0/5 | IC50 (anti-iodine antibody): 125 µM | ASA reaction: number of positive animal/number of sensitized animal (guinea-pigs [2]; sensitized 10 mg/animal s.c. 3 times, elicited with iodinated GSA 1 mg/animal i.v.): 0/5 | ASA reaction (in words) (guinea-pigs [2]; sensitized group): negative in all animals | Mean diameter of blue spots, iodine-sensitized guinea pig (first value) ([3]; 1 μg/site intradermal): 6.0 mm | Mean diameter of blue spots, iodine-sensitized guinea pig (second value) ([3]; 1 μg/site intradermal): -- | Mean diameter of blue spots, non-sensitized guinea-pig ([3]; 1 μg/site intradermal): -- | Mean diameter of blue spots, iodine-sensitized guinea pig (first value) ([3]; 10 μg/site intradermal): 8.5 mm | Mean diameter of blue spots, iodine-sensitized guinea pig (second value) ([3]; 10 μg/site intradermal): 4.0 mm | Mean diameter of blue spots, non-sensitized guinea-pig ([3]; 10 μg/site intradermal): -- | Mean diameter of blue spots, iodine-sensitized guinea pig (first value) ([3]; 100 μg/site intradermal): 11.0 mm | Mean diameter of blue spots, iodine-sensitized guinea pig (second value) ([3]; 100 μg/site intradermal): 6.0 mm | Mean diameter of blue spots, non-sensitized guinea-pig ([3]; 100 μg/site intradermal): -- | ACA reaction (in words) ([3]; intradermal injection, guinea-pigs sensitized with iodine): ACA reaction was elicited
